Values joined by “and” are separate entries in the source; they are usually repeats but may differ in a detail not shown here. Identical values can stand only once. After the bases stand the sugars from the 5' end (letter, count) and the backbone: PS all phosphorothioate, else s phosphorothioate and o phosphodiester by linkage. Methylation of C is not given here. e = 2'-O-(2-methoxyethyl) (MOE); k = constrained ethyl (cEt); d = 2'-deoxy (DNA)

93 sequences from the OligoGym collection can be followed below.

This series addresses IRF4. Particulars: ASO.

Take “CTGCTTGAGGTTTTCC (sugars kkkdddddddddkeke, PS)”: where the note is “MM.1R, 1 µM”, the target mRNA inhibition was determined as 50%.
On to GCATAGGCATCCTTCC (sugars k3 d10 k3, PS), for which the target mRNA inhibition (MM.1R, 1 µM) came out at 8%.
Regarding “ACTTTTAGAGAGGAGA (sugars k2 d9 e3 k2, PS)”, the target mRNA inhibition (MM.1R, 1 µM) was determined as 36%.
On the same count and under the same terms, then “TGCTTGAGGTTTTCCT (sugars k2 d9 e3 k2, PS)”, with 32%; and “AGTTCATGTAAAGTCT (sugars kkdddddddddkdkdk, PS)”, with 32% and 47%; and TGCTTTGCAGCATTGG (sugars k3 d10 k3, PS), with 30%.
For the sequence AACAATCCTGTACACT (sugars k3 d10 k3, PS), for the setting “SK-MEL-28, 4 µM”, the target mRNA inhibition came out at 22%.
Still for that read-out and setting: then CGCAATCTTCTGCTGA (sugars k3 d10 k3, PS), with 64%.
On the same count and under the same terms, for ACCTACAAAATGCCTC (sugars k3 d10 k3, PS) the value was 42%; for GCCAATCAGATGTCAC (sugars k3 d10 k3, PS), 46%.
As for AAGACTATTAGATAAG (sugars k3 d10 k3, PS), the target mRNA inhibition (SK-MEL-28, 4 µM) came out at 22%.
GAGTACCCAAGACTCC (sugars k3 d10 k3, PS): the target mRNA inhibition (SK-MEL-28, 4 µM) was determined as 25%.
Regarding AAGGAGGTAGTGGCCC (sugars k3 d10 k3, PS), the target mRNA inhibition (SK-MEL-28, 4 µM) came to 47%.
For the sequence “TTGATGTGATAGCTGA (sugars kdddddddddkekeke, PS)”, the target mRNA inhibition (MM.1R, 1 µM) stood at 34%.
Turning to TGCCCAATACATATCC (sugars k3 d10 k3, PS), the target mRNA inhibition (SK-MEL-28, 4 µM) amounted to 59%.
The same measure, in the same setting: for TCACCTGGCAACCTGC (sugars k3 d10 k3, PS) the value was 25%; for CTGTACACTTTGTACG (sugars k3 d10 k3, PS), 34%.
As to “CAGTGACTTGCATCCA (sugars k2 d9 e3 k2, PS)”, the target mRNA inhibition (MM.1R, 1 µM) was 28%.
In the case of “GATTATATACTGGTTG (sugars kdddddddddkekeke, PS)”, the target mRNA inhibition (MM.1R, 1 µM) worked out at 12%.
The same measure, in the same setting: then CAAGACAAGGGTTTGA (sugars k3 d10 k3, PS), with -3%.
Turning to GCTAAAGAACACTGCT (sugars k3 d10 k3, PS), the target mRNA inhibition (SK-MEL-28, 4 µM) was 3%.
Regarding AAGATCTCCATGGTGC (sugars k3 d10 k3, PS), the target mRNA inhibition is 4% (MM.1R, 0.0625 µM); 10% (MM.1R, 0.25 µM); 39% and 29% (MM.1R, 1 µM); 56% (MM.1R, 4 µM).
For the sequence “AAGCTTGATAAAGGCT (sugars kdddddddddkekeke, PS)”, the target mRNA inhibition (MM.1R, 1 µM) came out at 2%.
For the sequence GTAGGAGTGTAACTGA (sugars k3 d10 k3, PS), for the setting “SK-MEL-28, 4 µM”, the target mRNA inhibition was found to be 41%.
CAAGAGGTGCGAGTAC (sugars k3 d10 k3, PS): the target mRNA inhibition (SK-MEL-28, 4 µM) was 22%.
Consider CCCTTAGGATAATATA (sugars k3 d10 k3, PS), for which the target mRNA inhibition (SK-MEL-28, 4 µM) was found to be 49%.
In the case of CTGCTTGAGGTTTTCC (sugars k3 d10 k3, PS), the target mRNA inhibition (SK-MEL-28, 4 µM) came to 74%.
Take CTCCTATGCTGAACCC (sugars k3 d10 k3, PS): for the setting “MM.1R, 1 µM”, the target mRNA inhibition amounted to 9%.
For the sequence AAATCACTTGTCTTGG (sugars k3 d10 k3, PS), the target mRNA inhibition (SK-MEL-28, 4 µM) stood at 49%.
For CCAACTTATAGCACTC (sugars k3 d10 k3, PS), the target mRNA inhibition (MM.1R, 1 µM) was found to be 14%.
As for AATGACTTAGTCAGAA (sugars k3 d10 k3, PS), the target mRNA inhibition (SK-MEL-28, 4 µM) was found to be 27%.
As to AATTTTAAGGCCCTGT (sugars k3 d10 k3, PS), the target mRNA inhibition (SK-MEL-28, 4 µM) was 24%.
On the same count and under the same terms, then AGTTTACACTGGATCT (sugars k3 d10 k3, PS), with 70% and 74%; and CCCAAATGACTTAGTC (sugars k3 d10 k3, PS), with 32%.
On the same count and under the same terms, then TCACCTGAAGGATTTG (sugars k3 d10 k3, PS), with 25%; and CACCCACACAAGTCTT (sugars k3 d10 k3, PS), with 9%.
On to “TTGATGTGATAGCTGA (sugars kkdddddddddekeke, PS)”, for which, for the setting “MM.1R, 1 µM”, the target mRNA inhibition is 28%.
In the case of AAGGGAACAGATAGTT (sugars k3 d10 k3, PS), under “SK-MEL-28, 4 µM”, the target mRNA inhibition amounted to 20%.
In the case of “AGCTTGATAAAGGCTG (sugars kkdddddddddkdkdk, PS)”, the target mRNA inhibition (MM.1R, 1 µM) was -3%.
Turning to AATACCTACCTGCCCT (sugars k3 d10 k3, PS), the target mRNA inhibition (SK-MEL-28, 4 µM) is 15%.
Same read-out and setting: then ATTTTAAGGCCCTGTC (sugars k3 d10 k3, PS), with 34%; and GGCATACAGTGTGATT (sugars k3 d10 k3, PS), with 25%.
On to CTTCCAAGACAGCTTC (sugars k3 d10 k3, PS), for which the target mRNA inhibition (SK-MEL-28, 4 µM) amounted to 63%.
In the case of CATTGAGGCATACAGT (sugars k3 d10 k3, PS), where the note is “SK-MEL-28, 4 µM”, the target mRNA inhibition turned out to be 55%.
Consider AAAGAAACGAGTTGAC (sugars k3 d10 k3, PS), for which the target mRNA inhibition (MM.1R, 1 µM) was found to be 14%.
As to “ACCTCAGTTTGTGAAG (sugars kdddddddddkekeke, PS)”, the target mRNA inhibition (MM.1R, 1 µM) turned out to be 16%.
AAAGGGTAAGCACTGA (sugars k3 d10 k3, PS): for the setting “MM.1R, 1 µM”, the target mRNA inhibition was 19%.
For GGTCACTTGGTTCTCT (sugars k3 d10 k3, PS), the target mRNA inhibition (SK-MEL-28, 4 µM) stood at 79%.
Turning to CACAAGTGGCCTTCCT (sugars k3 d10 k3, PS), for the setting “SK-MEL-28, 4 µM”, the target mRNA inhibition came out at 45%.
Take “CCTCAGTTTGTGAAGC (sugars k2 d9 e3 k2, PS)”: the target mRNA inhibition (MM.1R, 1 µM) amounted to 33%.
Regarding ATCCATGTTGCATGGC (sugars k3 d10 k3, PS), the target mRNA inhibition (SK-MEL-28, 4 µM) came to 61%.
Turning to “CCTCAGTTTGTGAAGC (sugars kkddddddddddkeke, PS)”, under “MM.1R, 1 µM”, the target mRNA inhibition was found to be 16%.
Consider ACACAGGCTAATCAGA (sugars k3 d10 k3, PS), for which, for the setting “SK-MEL-28, 4 µM”, the target mRNA inhibition came out at 7%.
Take TTAGCCAATTCCTCCA (sugars k3 d10 k3, PS): where the note is “MM.1R, 1 µM”, the target mRNA inhibition is 36% and 47%.
As for CAATCATGATATTAGA (sugars k3 d10 k3, PS), the target mRNA inhibition (SK-MEL-28, 4 µM) was determined as 38%.
Take GGCTCCTACATGTTTG (sugars k3 d10 k3, PS): where the note is “SK-MEL-28, 4 µM”, the target mRNA inhibition is -46%.
In the case of AGACAAGTGCCCATCC (sugars k3 d10 k3, PS), under “MM.1R, 1 µM”, the target mRNA inhibition came to 1%.
As for “GTGTGCTTGCCAAGCC (sugars kdddddddddkekeke, PS)”, under “MM.1R, 1 µM”, the target mRNA inhibition is 6% and 22%.
Consider CTATGCTGAACCCCAC (sugars k3 d10 k3, PS), for which the target mRNA inhibition (SK-MEL-28, 4 µM) amounted to 1%.
Regarding ACGGGAATTTCCATTG (sugars k3 d10 k3, PS), the target mRNA inhibition (SK-MEL-28, 0.185 µM) is 11% and 5% and 1%; the target mRNA inhibition (SK-MEL-28, 4 µM) turned out to be 67%; the target mRNA inhibition (SK-MEL-28, 5 µM) was 57% and 61% and 82%; the target mRNA inhibition (SK-MEL-28, 15 µM) was 83% and 79% and 94%.
TCAAACCCTACTGGGT (sugars k3 d10 k3, PS): the target mRNA inhibition (SK-MEL-28, 4 µM) turned out to be 8%.
Consider GTACTTGCCGCTGTCG (sugars k3 d10 k3, PS), for which the target mRNA inhibition (SK-MEL-28, 4 µM) came to 27%.
For the sequence CCTACAAGCAGTCATC (sugars k3 d10 k3, PS), where the note is “SK-MEL-28, 4 µM”, the target mRNA inhibition is 54%.
Regarding AAATAAGATCCCACGA (sugars k3 d10 k3, PS), where the note is “MM.1R, 1 µM”, the target mRNA inhibition was -7%.
Take CATCAGAAATCACGAG (sugars k3 d10 k3, PS): the target mRNA inhibition (SK-MEL-28, 4 µM) was 55%.
For GGGTGCTCTTACAGCC (sugars k3 d10 k3, PS), the target mRNA inhibition (MM.1R, 1 µM) was -2%.
In the case of TAGAATGCATAACACG (sugars k3 d10 k3, PS), the target mRNA inhibition (MM.1R, 1 µM) amounted to 8%.
On the same count and under the same terms, then AACTAGTCGACAGCTA (sugars k3 d10 k3, PS), with -7%.
As for ACATATTCAATGCACC (sugars k3 d10 k3, PS), the target mRNA inhibition (SK-MEL-28, 4 µM) is 47%.
As to ATGTTAGCCAATTCCT (sugars k3 d10 k3, PS), the target mRNA inhibition (MM.1R, 1 µM) was 30% and 33%.
As to CGCCCAATCACCTTCC (sugars k3 d10 k3, PS), the target mRNA inhibition (MM.1R, 1 µM) is -19%.
Take CCCACACCAGCCCGGG (sugars k3 d10 k3, PS): for the setting “SK-MEL-28, 4 µM”, the target mRNA inhibition was -6%.
As to “AGCTTGATAAAGGCTG (sugars kdddddddddkekeke, PS)”, for the setting “MM.1R, 1 µM”, the target mRNA inhibition is 2%.
Still for that read-out and setting: then CTAGACAGAGAGTCCG (sugars k3 d10 k3, PS), with 5%.
For the sequence TCTACAAGGTCTGAGT (sugars k3 d10 k3, PS), the target mRNA inhibition (SK-MEL-28, 4 µM) was determined as 57%.
As to ACACAAGTCTTAGGTG (sugars k3 d10 k3, PS), for the setting “MM.1R, 1 µM”, the target mRNA inhibition was -153%.
Regarding CACTAAGCTTGATAAA (sugars k3 d10 k3, PS), for the setting “SK-MEL-28, 4 µM”, the target mRNA inhibition is -11%.
For the sequence GATAGGTATACTTAAG (sugars k3 d10 k3, PS), the target mRNA inhibition (SK-MEL-28, 4 µM) turned out to be 51%.
For the sequence TCAACCGCTGAACTGA (sugars k3 d10 k3, PS), the target mRNA inhibition (SK-MEL-28, 4 µM) worked out at 35%.
Still for that read-out and setting: for GCTAAACCCAAAATAC (sugars k3 d10 k3, PS) the value was 4%; for CCACTGTTAAAGCAGC (sugars k3 d10 k3, PS), 66%.
Regarding “GAAGTTTACACTGGAT (sugars kkddddddddddkeke, PS)”, the target mRNA inhibition (MM.1R, 1 µM) is 46%.
For the sequence GTGGAACTCTAGTGTC (sugars k3 d10 k3, PS), under “SK-MEL-28, 4 µM”, the target mRNA inhibition turned out to be 12%.
Turning to “TGTAGTATGAGAAACG (sugars k2 d9 e3 k2, PS)”, the target mRNA inhibition (MM.1R, 1 µM) amounted to 7%.
For the sequence CCTGGTCCAGGTTGCT (sugars k3 d10 k3, PS), the target mRNA inhibition (SK-MEL-28, 4 µM) turned out to be 26%.
Same read-out and setting: then TAAAAGGTTCCTGTCA (sugars k3 d10 k3, PS), with 6%.
In the case of TAGCCAATTCCTCCAC (sugars k3 d10 k3, PS), the target mRNA inhibition (MM.1R, 1 µM) turned out to be 1%.
For ACCACAAGCAGTGATG (sugars k3 d10 k3, PS), the target mRNA inhibition (MM.1R, 1 µM) is 1%.
AGAAGCACTGGCATCG (sugars k3 d10 k3, PS): the target mRNA inhibition (SK-MEL-28, 4 µM) turned out to be 37%.
Same read-out and setting: for TTTTATGGACCACGCA (sugars k3 d10 k3, PS) the value was 31%.
Still for that read-out and setting: then TACAAAAACTTGGGTC (sugars k3 d10 k3, PS), with 9%.
Turning to “GTAGTATGAGAAACGG (sugars e1 k2 d9 k2 e2, PS)”, under “MM.1R, 1 µM”, the target mRNA inhibition came to 29%.
Consider CCAACTTAAAATCCAC (sugars k3 d10 k3, PS), for which, where the note is “SK-MEL-28, 4 µM”, the target mRNA inhibition was 9%.
